From BigSolDB 2.1

O=C(O)c1cc([N+](=O)[O-])cc([N+](=O)[O-])c1O
solubility (mole fraction)
Settings | 278.15 K | 283.15 K | 288.15 K | 293.15 K | 298.15 K | 303.15 K | 308.15 K | 313.15 K | 318.15 K | 323.15 K
in 1,4-dioxane | – | – | 0.044 | 0.0495 | 0.0554 | 0.0622 | 0.0695 | 0.0778 | 0.0877 | 0.0994
in DMF | 0.0853 | 0.0951 | 0.107 | 0.119 | 0.135 | 0.152 | 0.171 | 0.19 | 0.214 | 0.241
in DMSO | – | – | – | 0.0749 | 0.0869 | 0.0999 | 0.114 | 0.13 | 0.149 | 0.172
in NMP | 0.0924 | 0.103 | 0.116 | 0.13 | 0.146 | 0.166 | 0.185 | 0.207 | 0.234 | 0.264
in acetonitrile | 0.0108 | 0.0125 | 0.0149 | 0.0177 | 0.0209 | 0.0248 | 0.029 | 0.0349 | 0.0411 | 0.0485
in cyclohexane | – | 0.00292 | 0.0036 | 0.00449 | 0.00558 | 0.00686 | 0.00836 | 0.0104 | 0.0128 | 0.0156
in ethanol | 0.0465 | 0.0518 | 0.0582 | 0.0659 | 0.0756 | 0.0862 | 0.0977 | 0.11 | 0.124 | 0.14
in ethyl acetate | 0.046 | 0.0501 | 0.0554 | 0.0619 | 0.0687 | 0.0771 | 0.0858 | 0.0966 | 0.109 | 0.122
in ethylene glycol | 0.0245 | 0.0277 | 0.0316 | 0.0365 | 0.0415 | 0.0476 | 0.054 | 0.062 | 0.0709 | 0.082
in isobutanol | 0.0139 | 0.0161 | 0.0198 | 0.0244 | 0.0295 | 0.0358 | 0.0439 | 0.0506 | 0.0589 | 0.0712
in isopropanol | 0.0262 | 0.03 | 0.0348 | 0.0402 | 0.0463 | 0.053 | 0.0608 | 0.0702 | 0.0808 | 0.0944
in n-butanol | 0.0116 | 0.0141 | 0.0172 | 0.0199 | 0.024 | 0.0301 | 0.0345 | 0.0424 | 0.049 | 0.0592
in n-propanol | 0.0364 | 0.0403 | 0.0456 | 0.0521 | 0.0597 | 0.068 | 0.0769 | 0.0866 | 0.0972 | 0.111
in water | 0.000646 | 0.000779 | 0.000964 | 0.0012 | 0.00145 | 0.00171 | 0.00198 | 0.00245 | 0.00301 | 0.00381
